Drawing on patent US6432976B1, “8-aza-bicyclo[3.2.1]octane NMDA/NR2B antagonists” (Merck & Co., Inc., priority 1999, dated 2002), this text covers melting point for four compounds.

Each structure is given as a SMILES string. Counter-ions that a name gives are not always drawn.

On to `OC1C(Cc2ccccc2)CC2CCC1N2Cc1nc2ccccc2[nH]1` (racemic), for which the melting point is 208 to 209 °C. Then `COC1C(Cc2ccccc2)CC2CCC1N2Cc1nc2ccccc2[nH]1` (racemic), with 172 to 173 °C; and `COC1C(Cc2ccccc2)CC2CCC1N2Cc1nc2ccccc2[nH]1` (racemic) (as salt: hydrochloride), with 222 to 226 °C; and `OC1C(Cc2ccccc2)CC2CCC1N2Cc1nc2ccccc2[nH]1` (racemic) (as salt: hydrochloride), with 234 to 236 °C.

Usually melting point stands for the temperature of the solid-liquid transition.
